The test system of experiment [1] is adiponectin. Kind of experiment: Serum adiponectin levels in rats orally administered β-NMN (Example 1). The experiment is classed as in vivo, rat. To be noted: CD rats, males and females, oral 250 and 1000 mg/kg/day, day 28. The protocol:
(§1) A solution prepared by dissolving β-NMN (Oriental Yeast Co., Ltd.) in water for injection (Otsuka Pharmaceutical Co., Ltd.) or PBS (phosphate-buffered saline) was orally administered by gavage using a metal gastric tube (Fuchigami Kikai Co., Ltd.) attached to a polypropylene disposable syringe (Terumo Corp.).
(§2) Measurement of adiponectin levels in the following experiments was carried out in the manner indicated below.
(§3) Anti-mouse adiponectin polyclonal antibody (Oriental Yeast Co., Ltd.) was adjusted to 10 μg/mL with PBS for use as primary antibody solution. […]
(§4) Moreover, 100 μl of substrate solution (Becton Dickinson & Co., TMB Substrate Reagent Set, #555214) were added to each well, and the plate covered with sealing film was incubated for 15 minutes at 25° C. After stopping the reaction by adding 100 μL of 2 N sulfuric acid to each well, the absorbance of each well was measured at a primary wavelength of 450 nm and a secondary wavelength of 570 nm with a plate reader (FLOUstar Optima, BMG LabTech Ltd.). Furthermore, since the mouse adiponectin polyclonal antibody used in ELISA cross-reacts with rat adiponectin, levels of rat adiponectin were measured as mouse adiponectin by using standard mouse adiponectin. […]
Rat serum adiponectin levels were measured on day 28 from the start of administration.

The test system of experiment [2] is adiponectin. Kind of experiment: Serum adiponectin levels in mice orally administered β-NMN (Example 2). The experiment is classed as in vivo, mouse. To be noted: C57BL/6N mice, females, oral 125 and 625 mg/kg/day, day 4. As to the method: as §1, §2, §3, §4
(§5) Mouse serum adiponectin levels were measured on day 4 from the start of administration. […]

Experiment [3] has as its system adiponectin. Briefly: Serum adiponectin levels in mice intraperitoneally administered β-NMN (Example 3). The experiment is classed as in vivo, mouse. To be noted: C57BL/6J mice, females, intraperitoneal 625 and 1250 mg/kg/day, day 4. As to the method: A solution prepared by dissolving β-NMN (Oriental Yeast Co., Ltd.) in PBS (phosphate-buffered saline) was administered intraperitoneally in accordance with the method of Dr. Sinclair (Gomes, et al., Cell, 2013, Vol. 155, p. 1624-1638) and the method of Dr. Imai (Yoshino, et al., Cell Metabolism, 2011, Vol. 14, p. 528-536).
as §2, §3, §4, §5

Experiment [4] deals with adipocytes differentiated from mouse fibroblast 3T3-L1 cells. Briefly: Adiponectin secreted from adipocytes differentiated from 3T3-L1 cells stimulated with β-NMN (Example 4). The experiment is classed as cell-based. The note with it: 3T3-L1 adipocytes cultured with β-NMN for 7 days vs without. As to the method:
3T3-L1 cells were differentiated into adipocytes and then the cells were stimulated with β-NMN to measure the secreted amount of adiponectin. The 3T3-L1 cells were differentiated into adipocytes in the manner described below. First, 3T3-L1 cells were seeded in a 24-well plate at 5×10^4 cells/well followed by culturing for 2 to 3 days in culture medium (DMEM containing 10% fetal bovine serum (FBS)) at 37° C. in 5% CO2. Next, the culture medium was replaced with a first differentiation-inducing medium (containing 10 μM dexamethasone, 5 μM 3-isobutyl-1-methylxanthine (IBMX) and 10 μg/mL of insulin) followed by culturing for 2 days at 37° C. in 5% CO2. The medium was replaced with the second differentiation-inducing medium (containing 10 μg/mL of insulin) followed by culturing for 2 days at 37° C. in 5% CO2. Subsequently, the medium was twice replaced with culture medium every 2 to 3 days to differentiate the 3T3-L1 cells into mature adipocytes. 3T3-L1 adipocytes were cultured in the presence (“NMN addition”) or absence (“NMN non-addition”) of β-NMN for 7 days. The amount of adiponectin secreted into the culture supernatant was measured. The results of measurement of adiponectin levels in the culture supernatant are shown in. FIG. 4. […]

Experiment [5] deals with ANKO mice (adipose tissue-specific NAMPT knockout mice). Briefly: NAD+ precursor rescue experiments in ANKO mice (Example 5). The experiment is classed as in vivo, mouse. The text has this: To determine whether metabolic derangements depend on the defects in NAD+ biosynthesis in ANKO mice, we treated mice with NMN, a key NAD+ intermediate and the product of the NAMPT reaction (FIG. 6A). In the diagram, “NA” represents nicotinic acid, “NaMN” represents nicotinic acid mononucleotide, “NIC” represents nicotinamide, “NR” represents nicotinamide riboside, “Tip” represents tryptophan, and “NAPRT” represents nicotinate phosphoribosyl transferase. NMN is a product of an enzyme reaction mediated by NAMPT and is converted directly to NAD+. Nicotinic acid is a precursor in the NAPRT-dependent NAD+ biosynthesis pathway.
ANKO mice were generated by using adiponectin-Cre transgenic mice and floxed-Nampt mice as previously described (Noon et al., 2015). Mice were maintained on a standard chow diet (LabDiet 5053; LabDiet) ad libitum. For RSG rescue experiments, ANKO mice received a chow containing RSG (#71740; Cayman Chemical) at the approximate dose of 20 mg/kg body Weight/day soon after weaning for up to 7 weeks. For NAD+ precursor rescue experiments, we administered NMN (#44500900; Oriental Yeast) and NA (#72309; Sigma-Aldrich) in drinking water, at the approximate dose of 500 mg/kg of body weight, to ANKO mice soon after weaning for up to 2 months.
More specifically, drinking water containing NMN (500 mg/kg body weight/day) was administered to the female ANKO mice and metabolic parameters were investigated after administering NMN for 4 to 6 weeks. In the graphs, “NMN-ANKO” indicates the results for NMN-treated ANKO mice, “ANKO” indicates the results for NMN-untreated ANKO mice of the same age as the NMN-treated ANKO mice, and “flox/flox” indicates the results for the control mice (female Nampt-floxed (flox/flox) mice). All values in the graphs represent the mean ±SE. In the graphs, “*” indicates p<0.05, “**” indicates p<0.01, and “***” indicates p<0.001 (NMN-treated ANKO mice vs. NMN-untreated ANKO mice, Student's t-test). In addition, in the graphs, “a” indicates p<0.05 (NMN-treated ANKO mice vs. NMN-untreated ANKO mice, ANOVA), and “b” indicates p<0.05 (control mice vs. NMN-untreated ANKO mice, ANOVA).
FIG. 6B indicates the results of measuring […] levels in adipose tissue for female ANKO mice administered NMN for 4 to 6 weeks (500 mg/kg body weight day) and non-dosed female ANKO mice of the same age (per group, n=5 to 7). NAD+ levels were measured with an HPLC (high-performance liquid chromatography) system using a Supelco LC-18-T column (#58970-U, Sigma-Aldrich Corp.) (Yoon, et al., Cell Metabolism, 2015, Vol. 21, p. 706-717). FIG. 6C indicates the results of having carried out an insulin tolerance test (ITT), consisting of administering insulin and measuring blood glucose concentration over time, on NMN-treated mice following administration of NMN for 4 weeks (n=7) and non-dosed ANKO mice for which age has been aligned at 2 to 3 weeks (n=14), and control mice (n=8). The left graph in FIG. 6C indicates the results for changes in glucose concentration over time (insulin tolerance curve), while the graph on the right side of FIG. 6C indicates the results for the area under the curve (AUC) of glucose concentration.
The results for measuring plasma insulin concentrations for NMN-treated ANKO mice, NMN-untreated ANKO mice and control mice are shown in FIG. 6D, while the results of measuring plasma free fatty acid (FFA) concentrations are shown in FIG. 6E (per group, n=5 to 11). In addition, visceral adipose tissue was respectively sampled from NMN-treated ANKO mice and NMN-untreated ANKO mice followed by measurement of the levels of PPARγ (Ser273), CDK5 and nuclear protein acetylated lysine in the visceral adipose tissue (per group, n=3 to 4). […]

Setting [6] is: ANKO mice, NMN 500 mg/kg body weight/day, 4 to 6 weeks.
[7] abbreviates: NMN-treated vs untreated ANKO mice.
[8] abbreviates: visceral adipose tissue, NMN-treated vs untreated ANKO mice.

For `NC(=O)c1ccc[n+]([C@@H]2O[C@H](COP(=O)([O-])O)C(O)[C@H]2O)c1` (stereo partly drawn) [β-NMN, Nicotinamide mononucleotide], in experiment [1], the serum adiponectin levels entry is “increased serum adiponectin levels dose-dependently”. In addition, the serum adiponectin levels result in experiment [2] is recorded as “increased serum adiponectin levels dose-dependently”. In addition, the serum adiponectin levels result in experiment [3] is recorded as “increased serum adiponectin levels dose-dependently”. Moreover, in experiment [4], the “adiponectin levels in the culture supernatant” value is recorded as “higher”. Also, the “insulin sensitivity (insulin tolerance test)” value in experiment [5] (ANKO mice, NMN 500 mg/kg body weight/day for 4 weeks, vs age-matched untreated ANKO mice) was “improved”. Besides, in experiment [5] (setting [6]), the “plasma FFA concentrations” value is “normalized” and the plasma insulin concentrations result is “normalized”. Further, in experiment [5] (setting [7]), the “plasma concentrations of adiponectin” value is “restored” and the “plasma concentrations of adipsin” value was “restored”. In addition, the “adipose tissue NAD+ concentrations” value in experiment [5] (female ANKO mice, NMN 500 mg/kg body weight/day in drinking water, 4 to 6 weeks) was “significantly increased”. In experiment [5] (setting [8]), the “Adipose tissue gene expression of adiponectin and adipsin” value is recorded as “restored”; the “global nuclear lysine acetylation” value is listed as “reduced”; the “phosphorylation of CDK5 in VAT” value is “decreased”; the “phosphorylation of PPARγ (Ser273) in VAT” value is given as “decreased”. In experiment [5] (β-NMN 500 mg/kg body weight/day in drinking water, 4 to 6 weeks), the “metabolic disorders of ANKO mice” value is on record as “improved”.

Regarding `O=C(O)c1cccnc1` [nicotinic acid, reference compound], in experiment [5] (nicotinic acid 500 mg/kg body weight/day, 5- to 7-week administration), the “metabolic disorders of ANKO mice” value is recorded as “improved”.
